Values joined by “and” are separate entries in the source; they are usually repeats but may differ in a detail not shown here. Equal entries are not always repeated. Where two headings read alike, the source gives them in different places.
Key:
[1] = test system: parental Ba/F3 cells (with IL-3); assay: CellTiter-Glo cell viability assay; type: cell-based, murine; conditions: Mus musculus
[2] = Body weight of Ba/F3-CD74-ROS1-WT xenograft mice; type: in vivo, mouse; conditions: Crizotinib 100 mg/kg po; for Body Weight Change(%) (average / SD): N 6
[3] = test system: Ba/F3-CD74-ROS1 L2026M cells; assay: CellTiter-Glo cell viability assay; type: cell-based, murine; conditions: Mus musculus
[4] = test system: HCC78xe3-SLC34A2-ROS1-WT xenograft; type: in vivo, mouse; parameters: Tumor volume LWW/2: unit not given here
[5] = test system: Ba/F3-CD74-ROS1 L1951R cells; assay: CellTiter-Glo cell viability assay; type: cell-based, murine; conditions: Mus musculus
[6] = test system: phospho-ROS1 in MGH193-1B cells; assay: Immunoblot of ROS1 autophosphorylation; type: cell-based, human; conditions: 6 h
Protocol: (§1) Lysates were prepared using 1x SDS lysis buffer (1% SDS and 10% glycerol in 100 mM Tris–HCl [pH 7.5])[27]. […] All the primary antibody was used 1:1000 dilution for immunoblot analysis.

[7] = test system: phospho-ROS1 in JFCR-168 cells; assay: Immunoblot of ROS1 autophosphorylation; type: cell-based, human; conditions: 6 h
Protocol: as §1

[8] = test system: phospho-ROS1 in JFCR-165 cells; assay: Immunoblot of ROS1 autophosphorylation; type: cell-based, human; conditions: 6 h
Protocol: as §1

[9] = test system: phospho-ROS1 in HCC78xe3-SLC34A2-ROS1-G2032R xenograft tumors; assay: Immunoblot of xenograft tumors; type: in vivo, mouse; conditions: 3 days treatment
[10] = test system: Ba/F3-CD74-ROS1 G2032R cells; assay: CellTiter-Glo cell viability assay; type: cell-based, murine; conditions: Mus musculus
[11] = test system: Ba/F3-TPM3-NTRK1 cells (WT); assay: CellTiter-Glo cell viability assay; type: cell-based, murine; conditions: Mus musculus, 72 h
[12] = test system: Ba/F3-CD74-ROS1-WT xenograft; type: in vivo, mouse; conditions: for Tumor volume (average / SE): ROS1-WT xenograft, 100 mg/kg po
[13] = test system: Ba/F3-CD74-ROS1 cells (WT); assay: CellTiter-Glo cell viability assay; type: cell-based, murine; conditions: Mus musculus
[14] = Crizotinib 100 mg/kg po; for Body Weight Change(%) (average / SD): N 6
[15] = test system: ROS1-rearranged NSCLC patients; conditions: cited from earlier work
[16] = test system: SLC34A2-ROS1-G2032R overexpressing HCC78xe3 cells; assay: Cell viability in 3D culture, CellTiter-Glo; type: cell-based; conditions: 72 h
[17] = test system: Ba/F3-CD74-ROS1 D2033N cells; assay: CellTiter-Glo cell viability assay; type: cell-based, murine; conditions: Mus musculus
[18] = test system: HCC78xe3-SLC34A2-ROS1-G2032R xenograft; type: in vivo, mouse
[19] = Crizotinib 100mg/kg, day 0, single mouse, in mm³
[20] = Crizotinib 100mg/kg, day 3, single mouse, in mm³
[21] = Crizotinib 100mg/kg, day 6, single mouse, in mm³
[22] = Crizotinib 100mg/kg, day 9, single mouse, in mm³
[23] = Crizotinib 100mg/kg, day 14, single mouse, in mm³
[24] = Crizotinib 100mg/kg, day 17, single mouse, in mm³
[25] = Crizotinib 100mg/kg, day 25, single mouse, in mm³
[26] = Crizotinib 100mg/kg, day 28, single mouse, in mm³
[27] = Crizotinib 100mg/kg, day 35, single mouse, in mm³
[28] = Crizotinib 100mg/kg, day 38, single mouse, in mm³
[29] = Crizotinib 100mg/kg, day 43, single mouse, in mm³
[30] = Crizotinib 100mg/kg, day 48, single mouse, in mm³
[31] = Crizotinib 100mg/kg, day 52, single mouse, in mm³
[32] = Crizotinib 100mg/kg, day 55, single mouse, in mm³

Compound: C[C@@H](Oc1cc(-c2cnn(C3CCNCC3)c2)cnc1N)c1c(Cl)ccc(F)c1Cl [crizotinib, reference compound]
- IC50 ([1]; BaF3, 72 h): 812 nM
- GI50 ([1]; BaF3, source data sheet): 798 nM
- Body Weight Change(%) (average / SD) ([2]; day 0, average): 0.0%
- Body Weight Change(%) (individual) ([2]; day 0, individual animals): 0%
- Body Weight Change(%) (average / SD) ([2]; day 1, average): -2.0%
- Body Weight Change(%) (individual) ([2]; day 1, individual animals): -1% and -1.4% and -4.2% and -2.7% and -0.5% and -2.3%
- Body Weight Change(%) (average / SD) ([2]; day 2, average): -1.9%
- Body Weight Change(%) (individual) ([2]; day 2, individual animals): -1.9% and -0.5% and -3.3% and -1.8%
- Body Weight Change(%) (average / SD) ([2]; day 3, average): -1.7%
- Body Weight Change(%) (individual) ([2]; day 3, individual animals): -2.4% and -1.4% and -4.2% and 2.3% and -2.8%
- Body Weight Change(%) (average / SD) ([2]; day 4, average): -4.4%
- Body Weight Change(%) (individual) ([2]; day 4, individual animals): -3.9% and -3.8% and -6.5% and -2.3% and -5.3% and -4.6%
- Tumor volume LWW/2 [4, 19]: 172.7 and 167.7
- Tumor volume LWW/2 [4, 20]: 103.2 and 100.2
- Tumor volume LWW/2 [4, 21]: 67.8 and 77.3
- Tumor volume LWW/2 [4, 22]: 39.9
- Tumor volume LWW/2 [4, 23]: 13.2
- Tumor volume LWW/2 [4, 24]: 18.9 and 19.3
- Tumor volume LWW/2 [4, 25]: 5.2
- Tumor volume LWW/2 [4, 26]: 6.5
- Tumor volume LWW/2 [4, 27]: 8.7
- Tumor volume LWW/2 [4, 28]: 5.4
- Tumor volume LWW/2 [4, 29]: 4.9
- Tumor volume LWW/2 [4, 30]: 7.2
- Tumor volume LWW/2 [4, 31]: 15.8
- Tumor volume LWW/2 [4, 32]: 16.3
- Tumor volume LWW/2 ([4]; HCC78_Xe3_WT xenograft, BALB/c-nu mice, Crizotinib 50mg/kg, day 25, individual mice No. 7-12): 44.9 and 36.7 and 19.6
- Tumor volume LWW/2 ([4]; HCC78_Xe3_WT xenograft, BALB/c-nu mice, Crizotinib 50mg/kg, day 43, individual mice No. 7-12): 75.9 and 129.8 and 100.2
- Inhibition of autophosphorylation of ROS1 [6]: potently inhibited
- Inhibition of autophosphorylation of ROS1 [7]: potently inhibited
- Inhibition of autophosphorylation of ROS1 [8]: potently inhibited
- Inhibition of phospho-ROS1 in tumors [9]: in SLC34A2-ROS1-WT-expressing HCC78xe3 cells only
- IC50 [11]: 21.4 nM
- Tumor shrinkage ([12]; 100 mg/kg once daily oral, 4 days): induced tumor shrinkage
- Tumor volume (average / SE) ([12]; day 0, N 6): 289 mm3
- Tumor volume (average / SE) ([12]; day 2, N 6): 151 mm3
- Tumor volume (average / SE) ([12]; day 4, N 6): 44 mm3
- Body Weight Change(%) (average / SD) ([14]; day 0, average): 0.0%
- Body Weight Change(%) (individual) ([14]; day 0, individual animals): 0%
- Body Weight Change(%) (average / SD) ([14]; day 1, average): -1.6%
- Body Weight Change(%) (average / SD) ([14]; day 2, average): -0.4%
- Body Weight Change(%) (average / SD) ([14]; day 3, average): -0.3%
- Body Weight Change(%) (average / SD) ([14]; day 4, average): 0.5%
- Median progression-free survival [15]: 19.2 months
- Overall response rate [15]: 72%
- Cell growth inhibition [16]: much higher than those to WT cells
- Tumor growth inhibition ([18]; 50 and 100 mg/kg once daily oral): highly resistant to crizotinib
- Tumor volume LWW/2 [18, 19]: 154.5
- Tumor volume LWW/2 [18, 20]: 162.2 and 132.5
- Tumor volume LWW/2 [18, 21]: 164.7 and 110.8
- Tumor volume LWW/2 [18, 22]: 136.2 and 132.2
- Tumor volume LWW/2 [18, 23]: 155.8 and 119.8
- Tumor volume LWW/2 [18, 24]: 174.0 and 154.2
- Tumor volume LWW/2 ([18]; Crizotinib 100mg/kg, day 21, single mouse, in mm³): 274.9 and 242.5
- Tumor volume LWW/2 [18, 25]: 238.7 and 300.2
- Tumor volume LWW/2 [18, 26]: 247.6 and 347.9
- Tumor volume LWW/2 ([18]; Crizotinib 100mg/kg, day 31, single mouse, in mm³): 309.9 and 336.1
- Tumor volume LWW/2 [18, 27]: 418.2 and 509.9
- Tumor volume LWW/2 [18, 28]: 526.9 and 595.5
- Tumor volume LWW/2 [18, 29]: 740.1 and 596.0
- Tumor volume LWW/2 [18, 30]: 745.2 and 699.2
- Tumor volume LWW/2 [18, 31]: 846.3 and 852.5
- Tumor volume LWW/2 [18, 32]: 921.5 and 834.7
- Tumor volume LWW/2 ([18]; HCC78_Xe3_G2032R xenograft, BALB/c-nu mice, Crizotinib 50mg/kg, day 6, individual mice No. 7-12): 127.8 and 126.6
- Tumor volume LWW/2 ([18]; HCC78_Xe3_G2032R xenograft, BALB/c-nu mice, Crizotinib 50mg/kg, day 17, individual mice No. 7-12): 278.8 and 148.6 and 98.2
- Survival ([18]; Kaplan–Meier, 50 and 100 mg/kg): did not show any superiority to the control group

— publication PMC6688997 (Nature Communications, 2019)
